Where two headings read alike, the source gives them in different places.
Molecular target: T1, human RXFP1 (Homo sapiens, UniProt Q9HBX9)
T1 sequence (Q9HBX9 1-757): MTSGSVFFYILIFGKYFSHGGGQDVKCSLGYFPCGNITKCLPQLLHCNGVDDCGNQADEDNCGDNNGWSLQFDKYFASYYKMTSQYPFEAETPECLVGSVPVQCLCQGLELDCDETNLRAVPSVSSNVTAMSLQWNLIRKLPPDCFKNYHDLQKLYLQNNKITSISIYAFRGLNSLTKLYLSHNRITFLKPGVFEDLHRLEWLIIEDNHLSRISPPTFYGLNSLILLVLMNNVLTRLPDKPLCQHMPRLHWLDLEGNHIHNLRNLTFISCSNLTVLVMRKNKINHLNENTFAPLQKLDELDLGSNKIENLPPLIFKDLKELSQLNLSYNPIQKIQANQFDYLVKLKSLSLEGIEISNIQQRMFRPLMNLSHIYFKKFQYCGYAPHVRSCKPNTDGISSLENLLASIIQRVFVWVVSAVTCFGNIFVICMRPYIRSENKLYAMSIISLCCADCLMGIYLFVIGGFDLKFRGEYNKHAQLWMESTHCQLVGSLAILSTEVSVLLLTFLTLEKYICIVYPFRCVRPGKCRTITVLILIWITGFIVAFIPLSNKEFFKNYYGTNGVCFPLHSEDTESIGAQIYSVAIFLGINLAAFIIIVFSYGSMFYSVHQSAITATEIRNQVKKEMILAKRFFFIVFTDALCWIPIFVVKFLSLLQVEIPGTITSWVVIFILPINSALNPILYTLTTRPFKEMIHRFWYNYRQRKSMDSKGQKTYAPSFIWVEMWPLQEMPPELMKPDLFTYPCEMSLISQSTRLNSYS
Experiment: RXFP1 Hu cAMP (Test A)
Assay type: cell-based
Set-up: expressed in transfected cells; host or cells: Jump-In T-REx CHO-K1 cells (ThermoFisher), induced with 10 ng/ml doxycycline for 24 h
Method in brief: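 Competitive HTRF cAMP readout (2 h, room temperature) in CHO-K1 cells stably expressing human RXFP1, induced with 10 ng/ml doxycycline for 24 h; IBMX 0.5 mM final.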

[1] = RXFP1 Hu cAMP, read-out: Test A EC50

Molecule | EC50 [1] [nM] | Test A Sinf (RXFP1 Hu cAMP) [%] | EC50 (Test A EC50, RXFP1 Hu cAMP) [nM]
COc1cc(F)c(O[C@H]2CC[C@@](C)(C(=O)O)CC2)cc1C(=O)NC1CC(OC)CC1C(=O)NCC(C)(C)C (single isomer, unassigned) [Example 546, (1R,4s)-4-(2-Fluoro-4-methoxy-5-(((1S*,2R*,4R*)-4-methoxy-2-(neopentylcarbamoyl)cyclopentyl)carbamoyl)phenoxy)-1-methylcyclohexane-1-carboxylic acid] | > 40000 | – | –
COc1cc(C#N)c(O[C@H]2CC[C@@](C)(C(=O)O)CC2)cc1C(=O)N[C@@H]1[C@H]2CC[C@H](C2)[C@@H]1C(=O)NCCCOC(C)C [Example 122] | 1300 | 71 | –
COc1cc(F)c(-c2ncc(C(=O)O)s2)cc1C(=O)N[C@H]1[C@@H](C(=O)Nc2cccc(S(=O)(=O)C(F)(F)F)c2)[C@@H]2C=C[C@H]1C2 (racemic) [Example 287] | 570 | 111 | –
COc1cc(F)c(OCc2ccc(C(C)(C)C(=O)O)cc2)cc1C(=O)N[C@H]1[C@@H](C(=O)Nc2cccc(S(=O)(=O)C(F)(F)F)c2)[C@@H]2C=C[C@H]1C2 (racemic) [Example 452] | 980 | 104 | –
COc1cc(F)c(O[C@H]2CC[C@@](C)(C(=O)O)CC2)cc1C(=O)N[C@@H]1[C@H]2CC[C@H](C2)[C@@H]1C(=O)NC12CC(C1)C2 [Example 600] | 140 | 104 | –
COc1cc(F)c([C@H]2CC[C@H](C(=O)O)CC2)cc1C(=O)N[C@@H]1[C@H]2CC[C@H](C2)[C@@H]1C(=O)Nc1cccc(S(=O)(=O)C(F)(F)F)c1 [Example 269, (1R,4r)-4-(2-fluoro-4-methoxy-5-(((1S,2R,3S,4R)-3-((3-((trifluoromethyl)sulfonyl)phenyl)carbamoyl)bicyclo[2.2.1]heptan-2-yl)carbamoyl)phenyl)cyclohexane-1-carboxylic acid] | 2900 | 44 | –
COc1cc(C#N)c(O[C@H]2CC[C@@](C)(C(=O)O)CC2)cc1C(=O)N[C@@H]1[C@H]2CC[C@H](C2)[C@@H]1C(=O)N[C@@H](C)c1ccccc1 (racemic) [Example 140] | 84 | 95 | –
COc1cc(C)c(O[C@H]2CC[C@@](C)(C(=O)O)CC2)cc1C(=O)N[C@@H]1[C@H]2CC[C@H](C2)[C@@H]1C(=O)NC12CC(F)(C1)C2 [Example 382] | 130 | 90 | –
COc1cc(F)c(-c2ccc(C(=O)O)cc2)cc1C(=O)N[C@H]1[C@@H](C(=O)Nc2cc(F)cc(S(F)(F)(F)(F)F)c2)[C@@H]2C=C[C@H]1C2 (racemic) [Example 298] | 910 | 82 | –
COc1cc(F)c(O[C@H]2CC[C@@](C)(C(=O)O)CC2)cc1C(=O)NC1COCCC1C(=O)Nc1ccc(F)c(S(F)(F)(F)(F)F)c1 (single isomer, unassigned) [Example 574, (1R,4s)-4-(2-Fluoro-5-(((3S*,4S*)-4-((4-fluoro-3-(pentafluoro-λ6-sulfaneyl)phenyl)carbamoyl)tetrahydro-2H-pyran-3-yl)carbamoyl)-4-methoxyphenoxy)-1-methylcyclohexane-1-carboxylic acid] | > 40000 | – | –
COc1cc(F)c(O[C@H]2CC[C@@](C)(C(=O)O)CC2)cc1C(=O)N[C@@H]1[C@H]2CC[C@H](C2)[C@@H]1C(=O)NCC(C)(C)CO [Example 612] | – | 119 | –
COc1cc(C#N)c(O[C@H]2CC[C@@](C)(C(=O)O)CC2)cc1C(=O)N[C@@H]1[C@H]2CC[C@H](C2)[C@@H]1C(=O)NC[C@@H](F)c1ccccc1 [Example 131] | 84 | 99 | –
COc1cc(F)c(-c2ccc(C(=O)O)cc2)cc1C(=O)N[C@H]1[C@@H](C(=O)Nc2ccc(F)c(C(F)(F)F)c2)[C@@H]2C=C[C@H]1C2 (racemic) [Example 307, rac-2′-Fluoro-5′-(((1R,2R,3S,4S)-3-((4-fluoro-3-(trifluoromethyl)phenyl)carbamoyl)bicyclo[2.2.1]hept-5-en-2-yl)carbamoyl)-4′-methoxy-[1,1′-biphenyl]-4-carboxylic acid] | 180 | 90 | –
COc1cc(F)c(O[C@H]2CC[C@@](C)(C(=O)O)CC2)cc1C(=O)N[C@@H]1CCN(C(C)=O)C[C@@H]1C(=O)Nc1cccc(S(=O)(=O)C(F)(F)F)c1 (racemic) [Example 487, (1R,4s)-4-(5-(((3RS,4SR)-1-Acetyl-3-((3-((trifluoromethyl)sulfonyl)phenyl)carbamoyl)piperidin-4-yl)carbamoyl)-2-fluoro-4-methoxyphenoxy)-1-methylcyclohexane-1-carboxylic acid] | > 40000 | – | –
COc1cc(F)c(-c2ccc(O)c(C(=O)O)c2)cc1C(=O)N[C@@H]1[C@H]2CC[C@H](C2)[C@@H]1C(=O)Nc1cccc(S(=O)(=O)C(F)(F)F)c1 (racemic) [Example 316, rac-2′-Fluoro-4-hydroxy-4′-methoxy-5′-(((1R,2S,3R,4S)-3-((3-((trifluoromethyl)sulfonyl)phenyl)carbamoyl)bicyclo[2.2.1]heptan-2-yl)carbamoyl)-[1,1′-biphenyl]-3-carboxylic acid] | 320 | 107 | –
COC(=O)[C@]1(C(=O)O)CC[C@@H](Oc2cc(C(=O)N[C@@H]3[C@H]4CC[C@H](C4)[C@@H]3C(=O)NCC3(C)CCC3)c(OC(C)C)cc2F)CC1 [Example 485, (1R,4r)-4-(2-Fluoro-4-isopropoxy-5-(((1S,2R,3S,4R)-3-(((1-methylcyclobutyl)methyl)carbamoyl)bicyclo[2.2.1]heptan-2-yl)carbamoyl)phenoxy)-1-(methoxycarbonyl)cyclohexane-1-carboxylic acid] | – | 95 | –
COc1cc(C(F)(F)F)c(O[C@H]2CC[C@@](C)(C(=O)O)CC2)cc1C(=O)N[C@@H]1[C@H]2CC[C@H](C2)[C@@H]1C(=O)NCC1(C)CCC1 [Example 372] | – | 96 | 21
COc1cc(C#N)c(O[C@H]2CC[C@@](C)(C(=O)O)CC2)cc1C(=O)N[C@@H]1[C@H]2CC[C@H](C2)[C@@H]1C(=O)NC[C@H]1C[C@@H](C)C1 [Example 124] | 160 | 101 | –
COc1cc(C#N)c(O[C@H]2CC[C@@](C)(C(=O)O)CC2)cc1C(=O)N[C@@H]1CCCC[C@@H]1C(=O)NCC1(C)CCC1 [Example 361] | 780 | 91 | –
COc1cc(F)c(-c2ccc(C(=O)O)cc2)cc1C(=O)N[C@H]1[C@@H](C(=O)N[C@H]2CCCN(S(=O)(=O)C(F)(F)F)C2)[C@@H]2C=C[C@H]1C2 (racemic) [Example 311] | 7700 | 67 | –
COc1cc(F)c(-c2cnc(CCC(=O)O)cn2)cc1C(=O)N[C@@H]1[C@@H]2CC[C@@H](C2)[C@@H]1C(=O)Nc1cccc(S(=O)(=O)C(F)(F)F)c1 (racemic) [Example 324, rac-3-(5-(2-Fluoro-4-methoxy-5-(((1R,2R,3S,4S)-3-((3-((trifluoromethyl)sulfonyl)phenyl)carbamoyl)bicyclo[2.2.1]heptan-2-yl)carbamoyl)phenyl)pyrazin-2-yl)propanoic acid] | 190 | 101 | –
COc1cc(F)c(O[C@H]2CC[C@@](C)(C(=O)O)CC2)cc1C(=O)N[C@@H]1CCO[C@@H]1C(=O)Nc1cccc(S(=O)(=O)C(F)(F)F)c1 [Example 356] | – | 119 | –
(1R,4s)-4-(2-Fluoro-5-(((3S*,4R*)-4-((4-fluoro-3-(pentafluoro-λ6-sulfaneyl)phenyl)carbamoyl)tetrahydrofuran-3-yl)carbamoyl)-4-methoxyphenoxy)-1-methylcyclohexane-1-carboxylic acid [Example 565] | – | 113 | –
COc1cc(F)c(OC2CCC(O)(C(=O)O)CC2)cc1C(=O)N[C@@H]1[C@@H]2CC[C@@H](C2)[C@@H]1C(=O)Nc1cccc(S(=O)(=O)C(F)(F)F)c1 (relative stereo) [Example 583, (1R,4r)-4-(2-Fluoro-4-methoxy-5-(((1R*,2R*,3S*,4S*)-3-((3-((trifluoromethyl)sulfonyl)phenyl)carbamoyl)bicyclo[2.2.1]heptan-2-yl)carbamoyl)phenoxy)-1-hydroxycyclohexane-1-carboxylic acid] | 350 | 84 | –
COc1cc(F)c(O[C@H]2CC[C@@](C)(C(=O)O)CC2)cc1C(=O)N[C@@H]1[C@H]2CC[C@H](C2)[C@@H]1C(=O)N[C@H]1CCCC1(C)C (relative stereo) [Example 504, (1S,4s)-4-(5-(((1S,2R,3S,4R)-3-(((R*)-2,2-Dimethylcyclopentyl)carbamoyl)bicyclo[2.2.1]heptan-2-yl)carbamoyl)-2-fluoro-4-methoxyphenoxy)-1-methylcyclohexane-1-carboxylic acid] | 600 | 91 | –

From patent publication US11667602B2, “Compounds and their use” (AstraZeneca AB, priority 2020, dated 2023)
